Assay results as given in patent US8158804B2, “Chelating agents” (GE Healthcare AS, priority 2007, dated 2012).

How the values were obtained:
[1] = Stability of gadolinium chelates, spectrophotometric (UV absorbance vs pH) method; type: physicochemical; settings: chelant with 1 equivalent of gadolinium (III); calculated from UV absorbance as a function of pH
Experimental: Stabilities of the gadolinium complexes of the chelates were measured by a spectrophotometric method using the principle that there is a change in UV absorbance of these compounds as the hydroxyl group on the pyridinone ring deprotonates. There is a significant decrease in the wavelength of the UV maximum as the proton is removed. The UV absorbance of the chelants at different pH's was determined to measure the UV absorbance at different degrees of protonation. The measurements were then repeated in the presence of 1 equivalent of gadolinium (III) and the effect on the UV absorbtion as a function of pH measured. A software program was used to analyze the data and calculate the affinity of the chelates for gadolinium.

[2] = Reference 1; cited from earlier work
[3] = Measurement of longitudinal relaxivity (T1 by inversion recovery method); type: physicochemical
Experimental: T1 was measured by the inversion recovery method as described by Timothy D. W. Claridge, in “High-Resolution NMR Techniques in Organic Chemistry” Pergamon Amsterdam 1999, 26-30.

[4] = Solubility of gadolinium chelates in water by HPLC analysis; type: physicochemical; settings: aqueous solution at 20° C.; for Water solubility of chelate: equilibration by shaking for a few hours
Experimental: The solubility of the gadolinium chelates in table 2 was measured by HPLC analysis of the concentrations of compound in aqueous solutions at 20° C. after equilibration by shaking for a few hours. […] This indicated the saturation point of the solution.

| Molecule | Gd Chelate STABILITY CONSTANT (LogKGdL) [1] | Water solubility of chelate [4] | further results |
| --- | --- | --- | --- |
| COCCn1ccc(=O)c(O)c1C(=O)NCC1CC(CNC(=O)c2c(O)c(=O)ccn2CCOC)CC(CNC(=O)c2c(O)c(=O)ccn2CCOC)C1 (stereo not drawn) [Example 3, Cis, cis 1,3,5,tris((3-hydroxy-1-(2-methoxyethyl)-4-oxo-4H-pyrid-2yl-)carboxyaminomethyl)-cyclohexane] | 21.287 | – | – |
| COCCn1ccc(=O)c(O)c1C(=O)NCCCC(CCCNC(=O)c1c(O)c(=O)ccn1CCOC)(CCCNC(=O)c1c(O)c(=O)ccn1CCOC)NC(=O)c1ccccc1 [Example 11, Tris((3-hydroxy-1-(2-methoxyethyl)-4-oxo-4H-pyridin-2-yl)-carboxyaminopropyl)-phenylcarboxyaminomethane] | 15.716 | – | – |
| O=C(NC(CCCNC(=O)c1c(O)c(=O)ccn1CCO)(CCCNC(=O)c1c(O)c(=O)ccn1CCO)CCCNC(=O)c1c(O)c(=O)ccn1CCO)c1ccccc1 [Example 12] | 18.284 | – | – |
| O=C(NCCN(CCNC(=O)c1occc(=O)c1O)CCNC(=O)c1occc(=O)c1O)c1occc(=O)c1O [Standard, reference compound] | 18.650 | – | pGd [2]: 19.27 |
| Bis aquo tris(3-hydroxy-1-(2-methoxyethyl)-4-oxo-4H-pyridin-2yl-)carboxyaminoeth-2-yl)amine gadolinium (III) salt [Example 1e] | – | <500 µg/mL | r1 at 10 MHz ([3]; 10 MHz): 9.7 mM⁻¹ s⁻¹; r1 at 20 MHz ([3]; 20 MHz): 11.6 mM⁻¹ s⁻¹; r1 at 60 MHz ([3]; 60 MHz): 9.5 mM⁻¹ s⁻¹ |
| Bis aquo tris((3-hydroxy-1-(2,3,4,5,6-pentahydroxyhexane)-4-oxo-4H-pyridin-2yl-]carboxyaminoeth-2-yl)amine gadolinium (III) [Example 8] | – | >200000 µg/mL | – |
| Bis aquo tris((3-hydroxy-1-(2,3,4-trihydroxybutane)-4-oxo-4H-pyridin-2yl-)carboxyaminoeth-2-yl)amine gadolinium (III) salt [Example 7] | – | – | Water solubility of chelate (kinetic solubility) ([4]; kinetic solubility, some compound precipitates on standing): ~10 mg/ml* *Kinetic solubility, but some compound precipitates on standing |
| Bis aquo tris((3-hydroxy-1-(2,3-dihydroxypropane)-4-oxo-4H-pyrid-2yl-)carboxyaminoeth-2-yl)-amine gadolinium (III) salt [Example 6] | – | 3400 µg/mL | – |
| Bis aquo tris((3-hydroxy-1-(2-(2-hydroxyethoxy)ethyl)-4-oxo-4H-pyridin-2yl-)carboxyaminoeth-2-yl)amine gadolinium (III) salt [Example 5] | – | <1000 µg/mL | – |
| Bis aquo tris(-3-hydroxy-1-(2-hydroxyethyl)-4-oxo-4H-pyridin-2yl-)carboxyaminoeth-2-yl)-amine gadolinium (III) salt [Example 4] | 17.929 | <500 µg/mL | – |
